According to PMC8318231, “Rate-of-Kill (RoK) assays to triage large compound sets for Chagas disease drug discovery: Application to GSK Chagas Box” (PLoS Neglected Tropical Diseases, 2021):

Legend:
[1] = system: T. cruzi Tulahuen trypomastigotes; test: T. cruzi trypomastigote assay (Cell Titer-Glo viability, ATP luminescence); assay type: cell-based, Trypanosoma cruzi; details: for Trypomastigotes pIC50 48 hours: 48 hours incubation; for Trypomastigotes pIC50 48 hours / Trypomastigotes pIC50 72 hours: pIC50 = -log10 IC50 in molar units; for Trypomastigotes pIC50 72 hours: 72 hours incubation; for 72 pIC50: 72 h
Outline: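 Tulahuen trypomastigotes from infected LLC-MK2 culture supernatants (days 5–8) plated at 5 × 10^4 per well in DMEM/2% FBS with compound at 5 μM single-shot final or in dose response. Viability by CellTiter-Glo ATP luminescence after 10 min at room temperature, normalised to no-cell (100%) and DMSO (0%) controls.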

[2] = system: T. cruzi intracellular amastigotes in H9c2 cells; test: Rate-of-Kill (RoK) high-content imaging assay, amastigotes per cell (AM/CELL) and curve descriptors; assay type: cell-based, Trypanosoma cruzi; parameters: key to ME_24h / ME_48h / ME_72h: % reduction in parasite burden (cidal response); t50pct_MCC50 / t50pct_Cmax: unit not given here; details: for ME_24h: 24h; for ME_48h: 48h; for ME_72h: 72h; for tlag_Cmax / t50pct_Cmax / t50%_Cmax: at Cmax; for ME_24h (%): maximum effect at 24 h; for ME_24h (%) / ME_48h (%) / ME_72h (%): RoK assay; for ME_48h (%): maximum effect at 48 h; for ME_72h (%): maximum effect at 72 h; for ME 24h (maximum effect at 24 hours, intracellular amastigotes): maximum percentage of parasite burden reduction reached by any concentration
Outline: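 H9c2 cardiomyocytes infected with T. cruzi trypomastigotes (MOI 8, 18 h), then compounds tested at 5 μM single shot or 11-point 1/3 dilution from 50 μM. DRAQ5-stained nuclei imaged over a time course. Amastigotes per cell normalised to infected cells at 4 h (0%) and non-infected cells (100%).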

SMILES | Trypomastigotes pIC50 48 hours [1] | Trypomastigotes pIC50 72 hours [1] | ME_24h ([2]; figure 5) | ME_48h ([2]; figure 5) | ME_72h ([2]; figure 5) | MCCE ([2]; RoK curve descriptor) [µM] | AM/CELL NORM ([2]; Time 4, sheet figure 4 A) | AM/CELL NORM ([2]; Time 24, sheet figure 4 A) | AM/CELL NORM ([2]; Time 48, sheet figure 4 A) | AM/CELL NORM ([2]; Time 72, sheet figure 4 A) | tlag_Cmax [2] [h] | t50pct_Cmax ([2]; figure 5) | tlag_Cmax ([2]; figure 5) | t50pct_MCC50 ([2]; at MCC50, figure 5) | tlag_MCC50 ([2]; at MCC50, figure 5) | MCCE ([2]; figure 5) | ME_24h (%) [2] [%] | ME_48h (%) [2] [%] | ME_72h (%) [2] [%] | ME 24h (maximum effect at 24 hours, intracellular amastigotes) [2] [%] | also measured
COc1ccc(CN(C)Cc2ccncc2)cc1-c1ccc(S(=O)(=O)NC2CCC2)s1.O=C(O)C(F)(F)F.O=C(O)C(F)(F)F [TCMDC-143084] | 5 | 4.9 | -28.7145 | 25.1182 | 44.4783 | 0.6 | -8.521 | -28.7145 | 25.1182 | 44.4783 | 24.0 | 72 | 24 | 72 | 72 | 0.6173 | -28.7 | 25.1 | 44.5 | -28.7145 | MCC50 ([2]; figure 5): 50 µM
COc1ccc(NS(=O)(=O)c2cccc(NC(=O)c3cc(F)cc(F)c3)c2)cc1 [TCMDC-143108] | 5 | 5.6 | 74.207 | 103.042 | 85.1326 | 1.9 | – | – | – | – | 4.0 | 24 | 4 | 48 | 14 | 1.852 | 74.2 | 103.0 | 85.1 | 70.2211 | MCC50 ([2]; RoK curve descriptor): 5.6 µM; AM/CELL NORM ([2]; Time 4, figure 4 A): 3.957; AM/CELL NORM ([2]; Time 24, figure 4 A): 27.4841; AM/CELL NORM ([2]; Time 48, figure 4 A): 38.7704; AM/CELL NORM ([2]; Time 72, figure 4 A): 44.9716; t50%_Cmax [2]: 24.0 h; t50%_MCC50 ([2]; at MCC50): 48.0 h; tlag_MCC50 ([2]; at MCC50): 14.0 h; MCC50 ([2]; figure 5, in µM): 5.556
Clc1ccc(Sc2cnccc2N2CCOCC2)cc1 [TCMDC-143602] | 4.5 | < 4.3 | -12.5205 | -29.081 | 15.6088 | 0.2 | 3.934 | -12.5205 | -29.081 | -95.1907 | 72.0 | 72 | 72 | 72 | 72 | 0.2058 | -12.5 | -29.1 | 15.6 | -12.5205 | MCC50 ([2]; figure 5): 50 µM
CCN(Cc1ccncc1)Cc1ccc(NC(=O)c2cc(-c3ccc(F)cc3)n[nH]2)cc1 [TCMDC-143433] | 4.9 | 4.5 | -248.551 | -140.579 | 30.4902 | 0.2 | 7.09 | -279.989 | -140.579 | 25.9601 | 24.0 | 72 | 24 | 72 | 72 | 0.2058 | -248.6 | -140.6 | 30.5 | -248.551 | MCC50 ([2]; figure 5): 50 µM
O=C(C1CCCCC1)N1CCN(c2nnc(-c3ccccc3)c3ccccc23)CC1 [TCMDC-143511] | < 4.3 | < 4.3 | -40.3218 | 29.1145 | 87.9479 | 1.9 | -0.05415 | -40.3218 | 2.791 | 87.9479 | 24.0 | 72 | 24 | 72 | 24 | 1.852 | -40.3 | 29.1 | 88.0 | -40.3218 | 72 pIC50 (trypomastigotes, raw data of Fig 1D) ([1]; 72 hours, plotted values, censored values given without sign): < 4.3; 48 pIC50 ([1]; trypomastigote assay, 48 h, figure 1A): < 4.3; 72 pIC50 ([1]; trypomastigote assay, figure 1A): < 4.3; 72 pIC50 ([1]; trypomastigote assay, figure 1B): < 4.3; MCC50 ([2]; RoK curve descriptor): 5.6 µM; t50%_Cmax [2]: 72.0 h; t50%_MCC50 ([2]; at MCC50): 72.0 h; tlag_MCC50 ([2]; at MCC50): 24.0 h; MCC50 ([2]; figure 5, in µM): 5.556
c1ccc2c(CCOc3nccnc3-c3ccncc3)c[nH]c2c1 [TCMDC-143562] | 4.4 | 4.5 | -24.9705 | 30.5632 | 12.8696 | 0.2 | -8.107 | -35.3498 | 30.5632 | -2.217 | 24.0 | 72 | 24 | 72 | 72 | 0.2058 | -25.0 | 30.6 | 12.9 | -24.9705 | MCC50 ([2]; figure 5): 50 µM
